Data from US20070178436A1, “Method of inactivating virus in circular blood and its applications in treating viral diseases” (Beijing Jingjing Medical Equipment CO., Ltd., priority 2003, published 2007).
Where two headings read alike, the source gives them in different places.

Experiments:
[1] = test system: VSV (vesicular stomatitis virus); assay type: cell-based
Sindbis virus (SV) = assay type: cell-based
VSV = assay type: cell-based, vesicular stomatitis virus; conditions: for residual virus VSV: 1500 ml plasma, bag with three pressed folded lines
Sindbis = assay type: cell-based, Sindbis virus
[2] = Impact on the pH value of whole blood; assay type: physicochemical; conditions: for pH value in whole blood: 60 minutes of circulatory processing
clotting factor IX = assay: Impact on the activity of clotting factor IX (detection kit); conditions: for Activity of factor IX (%): 60 minutes of circulatory processing
clotting factor VIII = assay: Impact on the activity of clotting factor VIII (detection kit); conditions: 60-minute circulatory processing
complement C3 = assay: Impact on the content of complement C3 (single-diffusion plate); conditions: 60 minutes of circulatory processing
[3] = Impact on the content of Inorganic Salt (automatic biochemical analyzer); conditions: 60 minutes of circulatory processing
[4] = test system: clotting factors of plasma; assay: Clotting factors before and after processing, automated coagulation analyzer; conditions: 60 minutes of circulatory processing
[5] = Impact on the content of the plasma protein (automatic biochemical analyzer); conditions: 60 minutes of circulatory processing

CN(C)c1ccc2nc3ccc(=[N+](C)C)cc-3sc2c1 [methylene blue]
virus titer left (VSV) ([1]; Volume of blood 1000 ml, circulatory time 60 mins): ≦−0.5 lg TCID50
virus titer left (VSV) ([1]; Volume of blood 2000 ml, circulatory time 120 mins): ≦−0.5 lg TCID50
virus titer left Sindbis (Sindbis virus (SV)): ≦−0.05 lg TCID50
residual virus VSV (VSV; Illumination time 1 h, 50 ml/min): 2.63 Lg TCID50
residual virus VSV (VSV; Illumination time 2 h, 50 ml/min): −0.13 Lg TCID50
residual virus VSV (VSV; Illumination time 4 h, 50 ml/min): ≦−0.50 Lg TCID50
reduction of virus titer VSV (VSV; Simulation 1, 1500 ml plasma, 50 ml/min): over 5.0 Lg TCID50
virus liter left VSV (VSV; illumination path 2.0 m, illumination time 26.0 sec, 50 ml/min): ≦−0.5 Lg TCID50
VSV illuminated (titer reduction) (VSV; illumination path 2 meter, 26 seconds, 50 ml/min): more than 5 LgTCID50
virus liter left VSV (VSV; illumination path 2.5 m, illumination time 32.5 sec, 50 ml/min): ≦−0.5 Lg TCID50
virus liter left VSV (VSV; illumination path 3.0 m, illumination time 39.0 sec, 50 ml/min): ≦−0.5 Lg TCID50
virus liter left VSV (VSV; illumination path 3.5 m, illumination time 45.5 sec, 50 ml/min): ≦−0.5 Lg TCID50
virus liter left VSV (VSV; illumination path 4.0 m, illumination time 52.0 sec, 50 ml/min): ≦−0.5 Lg TCID50
virus titer left (VSV) (VSV; standard 15 cm bag with five pressed folded lines, plasma flowing speed 50): ≦−0.50 Lg TCID50
virus titer left (VSV) (VSV; standard 15 cm bag with five pressed folded lines, plasma flowing speed 80): 0.13 Lg TCID50
virus titer left (VSV) (VSV; standard 15 cm bag with three pressed folded lines, plasma flowing speed 50): −0.25 Lg TCID50
virus titer left (VSV) (VSV; standard 15 cm bag with three pressed folded lines, plasma flowing speed 80): 1.50 Lg TCID50
virus titer left (VSV) (VSV; standard 15 cm cut-through plasma bag, plasma flowing speed 50): 4.25 Lg TCID50
virus titer left (VSV) (VSV; standard 15 cm cut-through plasma bag, plasma flowing speed 80): 5.13 Lg TCID50
Sindbis virus illuminated (titer reduction) (Sindbis): more than 5 LgTCID50
reduction of virus titer Sindbis (Sindbis): over 5.0 Lg TCID50
virus liter left Sindbis (Sindbis): ≦−0.5 Lg TCID50
pH value in whole blood ([2]; batch I): 7.35
pH value in whole blood ([2]; batch II): 7.38
pH value in whole blood ([2]; batch III): 7.36
change on the pH value of the whole blood ([2]; processing method of the invention): does not cause any change on the pH value
range of decrease of the activity of clotting factor IX (clotting factor IX; 60-minute circulatory processing): about 10%
Activity of factor IX (%) (clotting factor IX; batch I): 106.1%
Activity of factor IX (%) (clotting factor IX; batch II): 125.2%
Activity of factor IX (%) (clotting factor IX; batch III): 89.4%
range of decrease of the activity of clotting factor VIII (clotting factor VIII): less than 20%
reduction of the content of the complement C3 compared to a reference (complement C3): about 5%
content of the complement C3 (complement C3; batch I): 5.64 mg/mL
content of the complement C3 (complement C3; batch II): 5.43 mg/mL
content of the complement C3 (complement C3; batch III): 5.61 mg/mL
Ca content [3]: 1.57 mM/l
Cho content [3]: 3.82 mM/l
Cl content [3]: 58.7 mM/l
K content [3]: 3.22 mM/l
Mg content [3]: 0.67 mM/l
Na content [3]: 135.1 mM/l
P content [3]: 1.19 mM/l
APTT clotting time [4]: 74.0 ″
Clotting factor II clotting time [4]: 25.0 ″
Clotting factor IX clotting time [4]: 66.7 ″
Clotting factor V clotting time [4]: 31.8 ″
Clotting factor VII clotting time [4]: 26.8 ″
Clotting factor VIII clotting time [4]: 83.6 ″
Clotting factor X clotting time [4]: 32.6 ″
Clotting factor XI clotting time [4]: 82.6 ″
Clotting factor XII clotting time [4]: 70.2 ″
PT clotting time [4]: 19.6 ″
APTT (reduced) ([4]; versus control plasma): 17.5%
Clotting factor II (reduced) ([4]; versus control plasma): 1.6%
Clotting factor IX (reduced) ([4]; versus control plasma): 4.9%
Clotting factor V (reduced) ([4]; versus control plasma): 8.9%
Clotting factor VII (reduced) ([4]; versus control plasma): 7.2%
Clotting factor VIII (reduced) ([4]; versus control plasma): 7.2%
Clotting factor XI (reduced) ([4]; versus control plasma): 6.7%
Clotting factor XII (reduced) ([4]; versus control plasma): 3.7%
PT (reduced) ([4]; versus control plasma): 31.5%
Albumin content [5]: 36.1 g/L
Glucose content [5]: 21.2 mM/l
Total protein content [5]: 58.8 g/L
triglyceride content [5]: 1.62 mM/l
